From patent publication US20090246292A1, “ANTIMICROBIAL FORMULATIONS COMPRISING A QUINONE AND A COPPER SALT” (priority 2006, published 2009)
Where “and” joins values, the source holds several entries; their conditions need not be identical. Identical values can stand only once.

Legend:
[1] = tested on: P. acnes NCTC 737; assay: Minimum inhibitory concentration (MIC) assay; format: cell-based, Propionibacterium acnes
Description: (§1) (a) Minimum Inhibitory Concentration (MIC) Assay
(§2) The culture media were as described above.
(§3) The assays included both negative (culture medium with no micro-organisms) and positive (culture medium plus diluting solvent plus micro-organism) controls.

[2] = tested on: P. acnes NCTC 737; assay: Minimum bactericidal concentration (MBC) assay; format: cell-based, Propionibacterium acnes
Procedure: (§4) (b) Minimum Bactericidal Concentration (MBC) Assay
(§5) Following incubation they were examined visually for bacterial growth.

[3] = tested on: S. aureus ATCC 29213; assay: Minimum inhibitory concentration (MIC) assay; format: cell-based, Staphylococcus aureus
Description: as §1, §2, §3

[4] = tested on: S. aureus ATCC 29213; assay: Minimum bactericidal concentration (MBC) assay; format: cell-based, Staphylococcus aureus
Procedure: as §4, §5

[5] = tested on: P. granulosum NCTC 11865; assay: Disc diffusion assay (DDA), also supplemented; format: cell-based; settings: 200 μg per disc
Procedure: (§6) The propionibacteria were cultured and maintained on Wilkins-Chalgren Anaerobe Medium (agar and broth) at pH 6.0; all cultures were incubated anaerobically at 37° C. for 72 hours.
(§7) A sterile paper disc was impregnated with a sample of the test compound in a suitable solvent and 30 minutes allowed for the solvents to evaporate (where possible). The disc was then placed on an agar plate onto which the test micro-organism had been inoculated. The plate was then incubated under the conditions described above, following which it was examined visually for signs of bacterial growth. […] The diameter of this zone of “inhibition” was measured using a ProtoCOL™ automated zone sizer (Synbiosis, Cambridge, UK).
(§8) For assays using Propionibacterium spp. strains the supplements used in the examples below were lipid (either Tween™ 80 or triolein, both at 1% v/v) and sodium chloride (100 mM).

[6] = tested on: P. acnes PRP-002; assay: Disc diffusion assay (DDA), also supplemented; format: cell-based, Propionibacterium acnes; settings: 200 μg per disc
Procedure: as §6, §7, §8

[7] = tested on: P. acnes PRP-003; assay: Disc diffusion assay (DDA), also supplemented; format: cell-based, Propionibacterium acnes; settings: 200 μg per disc
Procedure: as §6, §7, §8

[8] = tested on: P. granulosum PRP-005; assay: Disc diffusion assay (DDA), also supplemented; format: cell-based; settings: 200 μg per disc
Procedure: as §6, §7, §8

[9] = tested on: P. granulosum PRP-006; assay: Disc diffusion assay (DDA), also supplemented; format: cell-based; settings: 200 μg per disc
Procedure: as §6, §7, §8

[10] = tested on: P. acnes PRP-007; assay: Disc diffusion assay (DDA), also supplemented; format: cell-based, Propionibacterium acnes; settings: 200 μg per disc
Procedure: as §6, §7, §8

[11] = tested on: P. acnes PRP-008; assay: Disc diffusion assay (DDA), also supplemented; format: cell-based, Propionibacterium acnes; settings: 200 μg per disc
Procedure: as §6, §7, §8

[12] = tested on: P. acnes PRP-010; assay: Disc diffusion assay (DDA), also supplemented; format: cell-based, Propionibacterium acnes; settings: 200 μg per disc
Procedure: as §6, §7, §8

[13] = tested on: P. acnes PRP-017; assay: Disc diffusion assay (DDA), also supplemented; format: cell-based, Propionibacterium acnes; settings: 200 μg per disc
[14] = tested on: P. granulosum PRP-019; assay: Disc diffusion assay (DDA), also supplemented; format: cell-based; settings: 200 μg per disc
Procedure: as §6, §7, §8

[15] = tested on: P. acnes PRP-023; assay: Disc diffusion assay (DDA), also supplemented; format: cell-based, Propionibacterium acnes; settings: 200 μg per disc
Procedure: as §6, §7, §8

[16] = tested on: P. acnes PRP-039; assay: Disc diffusion assay (DDA), also supplemented; format: cell-based, Propionibacterium acnes; settings: 200 μg per disc
[17] = tested on: P. granulosum PRP-043; assay: Disc diffusion assay (DDA), also supplemented; format: cell-based; settings: 200 μg per disc
Procedure: as §6, §7, §8

[18] = tested on: P. granulosum PRP-044; assay: Disc diffusion assay (DDA), also supplemented; format: cell-based; settings: 200 μg per disc
Procedure: as §6, §7, §8

[19] = tested on: P. acnes PRP-046; assay: Disc diffusion assay (DDA), also supplemented; format: cell-based, Propionibacterium acnes; settings: 200 μg per disc
[20] = tested on: P. acnes PRP-053; assay: Disc diffusion assay (DDA), also supplemented; format: cell-based, Propionibacterium acnes; settings: 200 μg per disc
Procedure: as §6, §7, §8

[21] = tested on: P. granulosum PRP-055; assay: Disc diffusion assay (DDA), also supplemented; format: cell-based; settings: 200 μg per disc
Procedure: as §6, §7, §8

[22] = tested on: P. acnes PRP-101; assay: Disc diffusion assay (DDA), also supplemented; format: cell-based, Propionibacterium acnes; settings: 200 μg per disc
Procedure: as §6, §7, §8

[23] = tested on: P. acnes PRP-102; assay: Disc diffusion assay (DDA), also supplemented; format: cell-based, Propionibacterium acnes; settings: 200 μg per disc
Procedure: as §6, §7, §8

[24] = tested on: panel of different propionibacterium strains; assay: MIC by agar dilution and (S)DDA, whole panel; format: cell-based, Propionibacterium spp; settings: compound alone; also under supplemented conditions
Procedure: For (S)DDA experiments 200 μg of each test compound was added per disc. […] MIC experiments were performed in duplicate, DDA experiments as single replicates only. SDDA experiments were conducted in triplicate.
The activity of the salt (MIC by agar dilution and DDA) was also determined against a panel of different propionibacterium strains. Supplemented DDA experiments were also carried out. […] DMSO was used as the diluting solvent. MIC experiments were performed in duplicate and DDA experiments as single replicates only.

[25] = tested on: P. acnes NCTC 737; assay: Disc diffusion assay (DDA), also supplemented;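 note: paper disc carrying compound placed on inoculated Wilkins-Chalgren Anaerobe agar pH 6.0, with lipid or NaCl supplement where listed, anaerobic 37 °C for 72 h, inhibition zone diameter read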
Procedure: as §6
(d) Disc Diffusion Assay (DDA)
as §7
(f) Supplemented Disc Diffusion Assays
as §8

[26] = tested on: S. aureus ATCC 29213; assay: Synergy disc diffusion assay (SDDA), also supplemented;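 note: disc diffusion on Mueller-Hinton agar at pH 7.2, aerobic incubation at 37 °C lasting 19-20 h, two compounds assessed jointly for combined antimicrobial effect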
Procedure: (e) Synergy Disc Diffusion Assay (SDDA)
This is a variation on the DDA method, in which two compounds are tested together for their combined antimicrobial activity.
Two test compounds A and B were placed on a single paper disc and the above described DDA procedure repeated.
(f) Supplemented Disc Diffusion Assays
For assays using S. aureus ATCC 29213 the supplements used were sodium chloride (100 mM), lipid (Tween™ 80 at 1% v/v) and horse serum (5% v/v).

`O.O.O.O.O.O=S(=O)([O-])[O-].[Cu+2]` [Copper (II) sulphate pentahydrate] was tested, and the MIC [1] was 15.6 µg/mL, the MIC/MBC ratio [1] was 0.125 and the MBC [2] was 125 µg/mL. For the same molecule, the MIC [3] was over 250 µg/mL, the MBC [4] was over 250 µg/mL and the “DDA + salt” value [5] was 48.34 mm. The “DDA + lipid” value ([5]; 1% (v/v) triolein) was 41.65 mm, the DDA ([5]; single replicate) was 48.34 mm and the DDA ([5]; Table 12 series) was 53.32 mm. For the same molecule, the “DDA + salt” value [6] was 50.77 mm, the “DDA + lipid” value ([6]; 1% (v/v) triolein) was 47.13 mm and the DDA ([6]; single replicate) was 49.25 mm. The DDA ([6]; Table 12 series) was 57.92 mm, the “DDA + salt” value [7] was 51.99 mm and the “DDA + lipid” value ([7]; 1% (v/v) triolein) was 45.91 mm. The DDA ([7]; single replicate) was 52.60 mm, the DDA ([7]; Table 12 series) was 50.18 mm and the “DDA + salt” value [8] was 29.19 mm. The “DDA + lipid” value ([8]; 1% (v/v) triolein) was 24.32 mm, the DDA ([8]; single replicate) was 24.02 mm and the DDA ([8]; Table 12 series) was 22.48 mm. The “DDA + salt” value [9] was 37.09 mm, the “DDA + lipid” value ([9]; 1% (v/v) triolein) was 30.71 mm and the DDA ([9]; single replicate) was 31.62 mm. The DDA ([9]; Table 12 series) was 27.91 mm, the “DDA + salt” value [10] was 55.03 mm and the “DDA + lipid” value ([10]; 1% (v/v) triolein) was 48.95 mm. For the same molecule, the DDA ([10]; single replicate) was 56.55 mm, the DDA ([10]; Table 12 series) was 40.35 mm and the “DDA + salt” value [11] was 51.99 mm. The “DDA + lipid” value ([11]; 1% (v/v) triolein) was 48.65 mm, the DDA ([11]; single replicate) was 52.29 mm and the DDA ([11]; Table 12 series) was 43.70 mm. The “DDA + salt” value [12] was 62.33 mm, the “DDA + lipid” value ([12]; 1% (v/v) triolein) was 46.82 mm and the DDA ([12]; single replicate) was 63.24 mm. For the same molecule, the DDA ([12]; Table 12 series) was 46.73 mm, the “DDA + salt” value [13] was 56.85 mm and the “DDA + lipid” value ([13]; 1% (v/v) triolein) was 55.03 mm. The DDA ([13]; single replicate) was 51.38 mm, the DDA ([13]; Table 12 series) was 46.31 mm and the “DDA + salt” value [14] was 25.84 mm. The “DDA + lipid” value ([14]; 1% (v/v) triolein) was 24.02 mm, the DDA ([14]; single replicate) was 22.80 mm and the DDA ([14]; Table 12 series) was 24.15 mm. The “DDA + salt” value [15] was 51.38 mm, the “DDA + lipid” value ([15]; 1% (v/v) triolein) was 47.43 mm and the DDA ([15]; single replicate) was 47.13 mm. The DDA ([15]; Table 12 series) was 60.95 mm, the “DDA + salt” value [16] was 61.72 mm and the “DDA + lipid” value ([16]; 1% (v/v) triolein) was 59.29 mm. The DDA ([16]; single replicate) was 53.51 mm, the DDA ([16]; Table 12 series) was 56.35 mm and the “DDA + salt” value [17] was 50.17 mm. The “DDA + lipid” value ([17]; 1% (v/v) triolein) was 41.35 mm, the DDA ([17]; single replicate) was 46.82 mm and the DDA ([17]; Table 12 series) was 56.56 mm. For the same molecule, the “DDA + salt” value [18] was 31.92 mm, the “DDA + lipid” value ([18]; 1% (v/v) triolein) was 26.45 mm and the DDA ([18]; single replicate) was 27.36 mm. For the same molecule, the DDA ([18]; Table 12 series) was 27.81 mm, the “DDA + salt” value [19] was 63.54 mm and the “DDA + lipid” value ([19]; 1% (v/v) triolein) was 60.81 mm. The DDA ([19]; single replicate) was 53.81 mm, the DDA ([19]; Table 12 series) was 50.29 mm and the “DDA + salt” value [20] was 54.42 mm. For the same molecule, the “DDA + lipid” value ([20]; 1% (v/v) triolein) was 51.08 mm, the DDA ([20]; single replicate) was 43.78 mm and the DDA ([20]; Table 12 series) was 50.18 mm. The “DDA + salt” value [21] was 28.88 mm, the “DDA + lipid” value ([21]; 1% (v/v) triolein) was 27.97 mm and the DDA ([21]; single replicate) was 27.67 mm. For the same molecule, the DDA ([21]; Table 12 series) was 31.78 mm, the “DDA + salt” value [22] was 53.21 mm and the “DDA + lipid” value ([22]; 1% (v/v) triolein) was 55.03 mm. For the same molecule, the DDA ([22]; single replicate) was 45.30 mm, the DDA ([22]; Table 12 series) was 43.49 mm and the “DDA + salt” value [23] was 49.25 mm. For the same molecule, the “DDA + lipid” value ([23]; 1% (v/v) triolein) was 50.77 mm, the DDA ([23]; single replicate) was 46.52 mm and the DDA ([23]; Table 12 series) was 51.65 mm. For the same molecule, the “activity against propionibacterium strains tested (in words)” value [24] was “excellent level of activity”, the DDA [25] was 49.75 mm and 42.05 (±1.16) mm and the “DDA + lipid” value [25] was 44.03 mm. For the same molecule, the “DDA + salt” value [25] was 50.28 mm, the “DDA + salt & lipid” value [25] was 49.96 mm and 49.54 (±1.34) mm and the SDDA area increase [26] was 88.33%. For the same molecule, the SDDA increase [26] was 15.05 mm, the “SDDA with TBHQ” value [26] was 55.47 mm and the “SS SDDA area increase” value [26] was 10.90%. The “SS SDDA increase” value [26] was 2.32 mm and the “SS SDDA with TBHQ” value [26] was 46.00 mm.
